The text below walks through data of PMC4267740, “Unprecedented Therapeutic Potential with a Combination of A2A/NR2B Receptor Antagonists as Observed in the 6-OHDA Lesioned Rat Model of Parkinson's Disease” (PLoS ONE, 2014).

The test system of data set [1] is unilateral 6-OHDA-lesioned rats. Put plainly: Distance traveled in actometers, monotherapy (without L-Dopa). Type of data set: in vivo, rat. As to conditions: Co-101244 1 mg/kg ip. As for the experimental part: (§1) To protect norepinephrinergic neurons, animals were administered imipramine HCl (Sigma) 15 minutes before surgery. They were subsequently anesthetized with ketamine (Ceva, 75 mg/kg) and xylazine (Bayer, 10 mg/kg) and placed in stereotaxic frame (David Kopf Instrument). 6-OHDA was injected into the right ascending medial forebrain bundle at the following coordinates (in mm) relative to bregma and surface of the dura, AP = −3.5, ML = −1.5, DV = −8.7. Each rat received one injection of 6-OHDA (4 µg/µl) over a period of 5 minutes (0.5 µl/min) for a total of 10 µg per rat. Animals were monitored for 3 weeks to ensure full recovery and habituation to the environment and experimenters.
(§2) On day 21 post surgery, all rats were challenged with a small dose of subcutaneously administered apomorphine (Sigma, 0.05 mg/kg). Rats showing more than 90 contralateral rotations (360°) over a 45-minute recording period were included in the study. […] For each experiment, rats were allocated to the different experimental groups in order to get the same mean level of basal activity measured at the apomorphine challenge amongst the different experimental groups.
(§3) Drug-naïve separate rats were tested individually in clear acrylic chambers (LE8811 IR, Panlab). Locomotion was detected and measured by 16 infrared light-beam sensors located on each side of the enclosure at a height of 3 cm. Sensors were spaced such that the light beams formed a matrix of 15×15 squares over the surface. Activity counts were recorded on a computer and Acti-Track software (Actitrack, Panlab) was used to convert raw data into “distance traveled” and “rearing counts” for analysis as relevant dependent variables.
(§4) Six different combinations of A2A/NR2B antagonists were tested without L-Dopa. For each combination, there were four different procedures: vehicle only; A2A antagonist followed by vehicle; vehicle followed by the NR2B antagonist and A2A antagonist followed by the NR2B antagonist. The drugs, doses and combinations are described in Table 3. After drug administration, rats were placed in actometers (open-field) for monitoring the general level of motor activity (distance traveled and rearing counts).
(§5) Before undertaking the study, each A2A and NR2B antagonist was tested individually. The doses were selected on the basis of preliminary dose-response curves performed separately for each drug and submaximal dose (i.e. response observed is not at its maximal level) of each drug was selected for the combination studies. The two drugs were administered separately via an intraperitoneal (ip) injection with a 2-minute interval between the two drugs. Five minutes after the second injection, animals were placed in the testing cage for behavioural recording. Due to formulation and exposure issues, Tozadenant and Radiprodil had to be administered orally and therefore recording was started 60 minutes post dosing at this corresponds to maximum plasma concentrations. Eight drug-naïve animals were used for each of the four procedures; 32 in total for each combination. All behavioral experiments were conducted between 8.00 AM and 2.00 PM at the latest. Preliminary pharmacokinetic assays investigated the plasma and brain disposition of selected drugs administered alone or in combination (ie. Tozadenant/Radiprodil, and Sch-58261/Co-101244; 3 animals per group). Tozadenant and Radiprodil were measured in samples obtained 60 minutes after single oral administration at 30 mg/kg. Sch-58261 and Co-101244 were measured in samples collected 90 min after single intraperitoneal administration at 3 mg/kg.
(§6) The effects of A2A and NR2B antagonists on the level of motor activity (i.e. distance traveled and rearing counts) were assessed with three-way mixed ANOVA, combining the A2A receptor antagonist (2 levels, vehicle and the A2A drug) and the NR2B antagonist (2 levels, vehicle and the NR2B drug) as between-group factors with the time as within-subjects factor (6 or 9 levels). […]

Data set [2] shares this test system. Put plainly: L-Dopa-induced contralateral rotations in rotometers, add-on therapy. As to conditions: add-on to L-Dopa 25 mg/kg ip, Sch-58261 0.3 mg/kg ip, Co-101244 1 mg/kg ip. Type of data set: in vivo, rat. Here is the method:
as §1, §2
The rats tested one week earlier for general activity (actometers) were once again placed in clear acrylic individual chambers (50×45 cm) with the same treatment (drug and dose) than that previously received plus L-Dopa. Eight chambers were placed on a level, clear glass bottom, held by a robust frame, and were subdivided into four individual test cages of 25×22 cm. A removable acrylic plate served as a lid.
Rotational behaviour was recorded using a home-made computerized system. Rats were fixed in a harness and linked to mechanical sensors connected directly to a computer. Each 360° clock-wise or counter clock-wise turn was automatically recorded for up to 120 minutes at the maximum. Throughout the experiments, rats were allocated to individual test cages.
Four different combinations were administered as add-on treatment to a low active dose of L-Dopa (25 mg/kg, ip) without any dopa decarboxylase inhibitor to avoid any additional pharmacokinetic interaction. The doses of the compounds were selected on the basis of preliminary dose-response curves performed separately for each drug. To avoid ceiling effect with L-Dopa, only submaximal doses of each drug were selected for testing (as it was done previously for monotherapy). Eight L-Dopa naïve animals were tested for each of the four pharmacological condition: vehicle and L-Dopa (25 mg/kg); A2A antagonist followed by vehicle and L-Dopa; vehicle followed by NR2B antagonist and L-Dopa; A2A antagonist followed by NR2B and L-Dopa. Due to the dominance of the L-Dopa-effect on the lesioned striatum, the unilateral 6-OHDA-lesioned rats rotated after the drugs administration and behavioral activity was recorded in rotometers (i.e. level of contralateral rotations).
All drugs were administered i.p. 25 minutes before behavioural recording, except for the Tozadenant and Radiprodil combination which was administered orally 60 minutes before behavioural recording. As Radiprodil was administered orally, L-Dopa was given 45 minutes after the Radiprodil injection whereas for the other combinations L-Dopa was given 15 minutes after the NR2B drug. The drugs, the doses and the combinations given in co-administration to L-Dopa are described in Table 4 .
The impact of treatment with A2A or NR2B receptor antagonists, given alone or in combination, on the effect of L-Dopa on contralateral rotations was also analysed with a three-way mixed ANOVA. The ANOVA included the A2A and the NR2B receptor antagonists (both, 2 levels, vehicle and the drug) as between-group factors combined with time (12 levels) as within-subjects factor. […] The ability of the combination to increase and prolong the activity of L-Dopa was also explored. Consequently, drug effects were analyzed for every 10-min time interval. […]

For data set [3], the system named is NR2B. On the set-up: method as in PMID 10454475, PMID 10425109. As to conditions: TEVC recording; cited from earlier work.
The test system of data set [4] is NR2B. As to conditions: In vitro Binding; cited from earlier work.
Data set [5] has as its system unilateral 6-OHDA-lesioned rats. Put plainly: Rearing counts in actometers, monotherapy (without L-Dopa). Type of data set: in vivo, rat. As to conditions: Co-101244 1 mg/kg ip. Here is the method:
as §1, §2, §3, §4, §5, §6

A short description of data set [6]: Plasma and brain exposure in satellite lesioned rats. Type of data set: in vivo, rat. As to conditions: 90 min after dosing, mean ± SD. Here is the method:
Satellite lesioned rats (400–450 g) were anesthetized with isoflurane and sacrificed by exsanguination. Blood samples were collected in EDTA centrifuged 10 min at 3000 rpm at 4°C to obtain plasma and stored at −20°C prior the analysis. Brains were perfused by saline collected and immediately stored at −20°C prior the analysis. Brain samples were added to 4 volumes of water before being homogenized. A structural analog compound was added as internal standard to the samples and proteins were crashed using 8 volumes of acetonitrile. Compounds were analyzed on an API5000 mass spectrometer (ABSciex, Framingham, MA, USA.) equipped with a turbo ion spray source and interfaced with an Agilent 1290 Infinity LC system (Agilent Technologies, Waldbroon, Germany). The mass spectrometer was operated in the positive ionization mode with Multiple Reactions Monitoring used to quantify the various analytes (407 to 292 for Tozadenant; 398 to 109 for Radiprodil, 346 to 105 for Sch-58261 and 342 to 100 for Co-101244). A Waters HSS T3 column (2.1×30 mm, 1.8 µm) was used. The mobile phase consisted of 100% water with 0.1% formic acid (phase A) and 100% acetonitrile with 0.1% formic acid (phase B). The flow rate was 1 mL/min. A linear gradient was performed from 0 to 1 min (95 to 30% phase A), a jump to 90% B in 0.01 min, a hold period of 1.29 min at 90% phase B followed by equilibration at the initial condition was applied before the following injection.
as §5

The structures appear in SMILES notation. Values joined by “and” are separate entries in the source; they are usually repeats but may differ in a detail not shown here. Equal entries are not always repeated. “Also recorded” adds a separate entry of the source. Where two headings read alike, the source gives them in different places.

One may read the IC50 as the concentration that gives 50% inhibition. In the case of `Cc1ccc(CC2(O)CCN(CCOc3ccc(O)cc3)CC2)cc1` [Co-101244], in data set [1] (Istradefylline 0.3 mg/kg ip), the “Distance traveled, drugs alone vs vehicle, p (Newman-Keuls)” value is “not all drugs when administered alone improved distance traveled; also recorded: Not significant”; the “Distance traveled, drugs main effect, p (three-way mixed ANOVA)” value is given as “p<0.05”; the “Distance traveled, drugs × time effect, p (three-way mixed ANOVA)” value is “p<0.001”. Also, in data set [1] (Sch-58261 1 mg/kg ip), the “Distance traveled, drugs main effect, p (three-way mixed ANOVA)” value is listed as “p<0.001” and the “Distance traveled, drugs × time effect, p (three-way mixed ANOVA)” value is recorded as “p<0.001”. For the same compound, in data set [2], the “Contralateral rotations, drugs main effect, p (three-way mixed ANOVA)” value is “Not significant” and the “Contralateral rotations, drugs × time effect, p (three-way mixed ANOVA)” value is recorded as “p<0.001”. In the data set on NR2B [3], the IC50 was 26 nM and 43 nM. Also, the concentration for half-maximal inhibition (IC50) in the data set on NR2B [4] is 4 nM. In addition, in data set [5] (Istradefylline 0.3 mg/kg ip), the “Rearing counts, drugs alone vs vehicle, p (Newman-Keuls)” value is “Co-101244, not significant”; the “Rearing counts, drugs main effect, p (three-way mixed ANOVA)” value is “Not significant”; the “Rearing counts, drugs × time effect, p (three-way mixed ANOVA)” value is given as “p<0.01”. In addition, in data set [5] (Sch-58261 1 mg/kg ip), the “Rearing counts, drugs main effect, p (three-way mixed ANOVA)” value was “p<0.001” and the “Rearing counts, drugs × time effect, p (three-way mixed ANOVA)” value is on record as “p<0.001”. Also, in data set [6] (administered alone, ip 3 mg/kg, 3 animals (Co-101244 n = 2)), the Plasma concentration is listed as 54.7 (n = 2) ng/mL. For the same compound, in data set [6] (administered in combination Sch-58261+Co-101244, both ip 3 mg/kg, 3 animals), the Plasma concentration came to 55.4 ± 8.32 ng/mL.
